# Results published in US12180226B2, “Spirotricycle RIPK1 inhibitors and methods of uses thereof” (Merck Sharp & Dohme LLC, priority 2021, dated 2024).
# Counter-ions that a name gives are not always drawn.
# Molecular target: RIPK1 (recombinant GST-RIPK1 kinase domain, residues 1-327) (Homo sapiens (Human), UniProt Q13546)
# Experiment: RIPK1-ADP-Glo Enzymatic Assay
# Assay type: biochemical
# Details: ADP-Glo; 25 nM GST-RIPK1, 300 μM ATP; assay lower limit ~25 nM; read-out: RIPK1 V0 Ec50
# In short: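 Inhibition of ADP formation was measured after compound and enzyme (25 nM) were pre-incubated for 30 minutes at ambient temperature and the kinase reaction ran for 150 minutes at 300 μM ATP with dephosphorylated MBP substrate. EC50 values come from ten-point curves fitted non-linearly.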
# Chain of RIPK1 (recombinant GST-RIPK1 kinase domain, residues 1-327) (Q13546 1-327): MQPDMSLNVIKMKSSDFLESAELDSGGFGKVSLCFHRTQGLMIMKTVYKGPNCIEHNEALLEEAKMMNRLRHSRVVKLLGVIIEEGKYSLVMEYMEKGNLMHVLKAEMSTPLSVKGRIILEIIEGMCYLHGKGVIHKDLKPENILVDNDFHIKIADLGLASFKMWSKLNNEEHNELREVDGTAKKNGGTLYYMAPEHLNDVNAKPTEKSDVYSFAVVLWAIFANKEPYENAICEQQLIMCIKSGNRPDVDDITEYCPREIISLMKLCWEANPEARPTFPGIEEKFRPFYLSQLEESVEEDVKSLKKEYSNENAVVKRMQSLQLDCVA
row,EC50,Compound
1,0.0484 µM,"CC(C)N1Cc2nc(N3CCC4(CC3)O[C@@H]3CC[C@@H](c5ccccc5)N3C4=O)ccc2C1=O [Example 4.195, (5′S,7a′R)-1-[5-oxo-6-(propan-2-yl)-6,7-dihydro-5H-pyrrolo[3,4-b]pyridin-2-yl]-5′-phenyltetrahydro-3′H-spiro[piperidine-4,2′-pyrrolo[2,1-b] [1,3]oxazol]-3′-one]"
2,0.348 µM,"O=C1N2[C@@H](CC[C@H]2c2ccccc2F)OC12CN(CCc1ccccc1)C2 [Example 22.8, (5′S,7a′R)-5′-(2-fluorophenyl)-1-(2-phenylethyl)tetrahydro-3′H-spiro[azetidine-3,2′-pyrrolo[2,1-b][1,3]oxazol]-3′-one]"
3,0.048 µM,"O=C1N2[C@@H](CC[C@H]2c2ccccc2)OC12CCN(c1cc(CF)ncn1)CC2 [Example 4.203, (5′S,7a′R)-1-[6-(fluoromethyl)pyrimidin-4-yl]-5′-phenyltetrahydro-3′H-spiro[piperidine-4,2′-pyrrolo[2,1-b] [1,3]oxazol]-3′-one]"
4,0.0251 µM,"COC(=O)c1cnc(N2CCC3(CC2)O[C@@H]2CC[C@@H](c4ccccc4)N2C3=O)c(OC)c1 [Example 4.197, methyl 5-methoxy-6-[(5′S,7a′R)-3′-oxo-5′-phenyltetrahydro-1H,3′H-spiro[piperidine-4,2′-pyrrolo[2,1-b] [1,3]oxazol]-1-yl]pyridine-3-carboxylate]"
5,< 0.025 µM,"COc1cccc(C(=O)N2CCC3(CC2)O[C@@H]2CC[C@@H](c4ccccc4)N2C3=O)c1 [Example 6.155, (5′S,7a′R)-1-(3-methoxybenzene-1-carbonyl)-5′-phenyl-tetrahydro-3′H-spiro [piperidine-4,2′-pyrrolo[2,1-b][1,3]oxazol]-3′-one]"
6,0.388 µM,"O=C(c1cnc(C(F)(F)F)cn1)N1CCC2(CC1)O[C@@H]1CC[C@@H](c3cc(F)cc(F)c3)N1C2=O [Example 6.1, (5′S,7a′R)-5′-(3,5-Difluorophenyl)-1-(5-(trifluoromethyl)pyrazine-2-carbonyl)tetrahydro-3′H-spiro[piperidine-4,2′-pyrrolo[2,1-b]oxazol]-3′-one]"
7,0.069 µM,"O=C1N2[C@@H](CC[C@H]2c2cccc(F)c2)OC12CCN(c1cc(C(F)F)ncn1)CC2 [Example 4.52, (5′S,7a′R)-1-[6-(difluoromethyl)pyrimidin-4-yl]-5′-(3-fluorophenyl)tetrahydro-3′H-spiro[piperidine-4,2′-pyrrolo[2,1-b] [1,3]oxazol]-3′-one]"
8,0.118 µM,"Cc1cc(C)cc(C(=O)N2CCC3(CC2)O[C@@H]2CC[C@@H](c4ccccc4)N2C3=O)c1 [Example 6.150, (5′S,7a′R)-1-(3,5-dimethylbenzene-1-carbonyl)-5′-phenyl-tetrahydro-3′H-spiro [piperidine-4,2′-pyrrolo[2,1-b][1,3]oxazol]-3′-one]"
9,0.0256 µM,"O=C1N2[C@@H](CC[C@H]2c2cnccn2)OC12CCN(c1ccnc3c(F)cnn13)CC2 [Example 4.140, (5′S,7a′R)-1-(3-fluoropyrazolo[1,5-a]pyrimidin-7-yl)-5′-(pyrazin-2-yl)tetrahydro-3′H-spiro[piperidine-4,2′-pyrrolo[2,1-b] [1,3]oxazol]-3′-one]"
10,0.0459 µM,"Cc1nc(N2CCC3(CC2)O[C@@H]2CC[C@@H](c4cc(F)cc(F)c4)N2C3=O)ncc1OC(F)F [Example 4.58, (5′S,7a′R)-1-[5-(difluoromethoxy)-4-methylpyrimidin-2-yl]-5′-(3,5-difluorophenyl)tetrahydro-3′H-spiro[piperidine-4,2′-pyrrolo[2,1-b] [1,3]oxazol]-3′-one]"
11,0.38 µM,"O=C1N2[C@@H](CC[C@H]2c2cc(F)cc(F)c2)OC12CCN(c1ncc(F)c3ncnn13)CC2 [Example 4.90, (5′S,7a′R)-5′-(3,5-difluorophenyl)-1-(8-fluoro-[1,2,4]triazolo [1,5-c]pyrimidin-5-yl)tetrahydro-3′H-spiro[piperidine-4,2′-pyrrolo[2,1-b]oxazol]-3′-one, TFA salt]"
12,0.0311 µM,"N#Cc1ccnc(N2CCC3(CC2)O[C@@H]2CC[C@@H](c4cccc(F)c4)N2C3=O)c1 [Example 4.54, 2-[(5′S,7a′R)-5′-(3-fluorophenyl)-3′-oxotetrahydro-1H,3′H-spiro[piperidine-4,2′-pyrrolo[2,1-b] [1,3]oxazol]-1-yl]pyridine-4-carbonitrile]"
13,0.619 µM,"Cc1nc(C(=O)N2CCC3(CC2)O[C@@H]2CC[C@@H](c4cccc(F)c4)N2C3=O)c(C)o1 [Example 6.126, (5′S,7a′R)-1-(2,5-dimethyl-1,3-oxazole-4-carbonyl)-5′-(3-fluorophenyl)tetra-hydro-3′H-spiro[piperi-dine-4,2′-pyrrolo[2,1-b][1,3]oxazol]-3′-one]"
14,0.0369 µM,"O=C(c1cnccn1)N1CCC2(CC1)O[C@@H]1CC[C@@H](c3cc(F)cc(F)c3)N1C2=O [Example 6.85, (5′S,7a′R)-5′-(3,5-difluorophenyl)-1-(pyrazine-2-carbon-yl)tetrahydro-3′H-spiro[piperidine-4,2′-pyrrolo[2,1-b][1,3]-oxazol]-3′-one]"
15,< 0.025 µM,"O=C1N2[C@@H](CC[C@H]2c2ccccc2)OC12CCN(c1cc(-c3ccsc3)ccn1)CC2 [Example 4.170, (5′S,7a′R)-5′-phenyl-1-[4-(thiophen-3-yl)pyridin-2-yl]tetrahydro-3′H-spiro[piperidine-4,2′-pyrrolo[2,1-b] [1,3]oxazol]-3′-one]"
16,< 0.025 µM,"N#Cc1ccc(N2CCC3(CC2)O[C@@H]2CC[C@@H](c4cc(F)cc(F)c4)N2C3=O)cc1 [Example 4.68, 4-[(5′S,7a′R)-5′-(3,5-difluorophenyl)-3′-oxotetrahydro-1H,3′H-spiro[piperidine-4,2′-pyrrolo[2,1-b] [1,3]oxazol]-1-yl]benzonitrile]"
17,0.281 µM,"Cc1cncc(C(=O)N2CCC3(CC2)O[C@@H]2CC[C@@H](c4cc(F)cc(F)c4)N2C3=O)c1 [Example 6.59, (5′S,7a′R)-5'-(3,5-difluorophenyl)-1-(5-methylpyridine-3-carbonyl)tetrahydro-3′H-spiro[piperidine-4,2′-pyrrolo[2,1-b] [1,3]oxazol]-3′-one]"
18,0.246 µM,"CSc1cnc(N2CCC3(CC2)O[C@@H]2CC[C@@H](c4cc(F)cc(F)c4)N2C3=O)nc1 [Example 4.55, (5′S,7a′R)-5′-(3,5-difluorophenyl)-1-[5-(methylsulfanyl)pyrimidin-2-yl]tetrahydro-3′H-spiro[piperidine-4,2′-pyrrolo[2,1-b] [1,3]oxazol]-3′-one]"
19,0.28 µM,"O=C(c1cccc2nccnc12)N1CCC2(CC1)O[C@@H]1CC[C@@H](c3cc(F)cc(F)c3)N1C2=O [Example 6.55, (5′S,7a′R)-5′-(3,5-difluorophenyl)-1-(quinoxaline-5-carbon-yl)tetrahydro-3′H-spiro[piperidine-4,2′-pyrrolo[2,1-b][1,3]-oxazol]-3′-one]"
20,0.867 µM,"CCOc1ncccc1C(=O)N1CCC2(CC1)O[C@@H]1CC[C@@H](c3cc(F)cc(F)c3)N1C2=O [Example 6.38, (5′S,7a′R)-5′-(3,5-difluorophenyl)-1-(2-ethoxypyridine-3-carbonyl)tetrahydro-3′H-spiro[piperidine-4,2′-pyrrolo[2,1-b] [1,3]oxazol]-3′-one]"
21,0.212 µM,"N#Cc1ccc(C(=O)N2CCC3(CC2)O[C@@H]2CC[C@@H](c4cc(F)cc(F)c4)N2C3=O)c(F)c1 [Example 5.20, 4-((5′S,7a′R)-5′-(3,5-difluorophenyl)-3′-oxo-tetrahydro-3′H-spiro [piperidine-4,2′-pyrrolo-[2,1-b]oxazole]-1-carbon-yl)-3-fluorobenzonitrile]"
22,0.17 µM,"C#Cc1ccc(C(=O)N2CCC3(CC2)O[C@@H]2CC[C@@H](c4cc(F)cc(F)c4)N2C3=O)cc1 [Example 5.27, (5′S,7a′R)-5′-(3,5-difluoro-phenyl)-1-(4-ethynyl-benzoyl)tetrahydro-3′H-spiro[piperidine-4,2′-pyrrolo[2,1-b]oxazol]-3′-one]"
23,0.042 µM,"O=C1N2[C@@H](CC[C@H]2c2ccccc2)OC12CCN(c1nccc(-c3ccccn3)n1)CC2 [Example 11.11, (5′S,7a′R)-5′-phenyl-1-[4-(pyridin-2-yl)pyrimidin-2-yl]tetrahydro-3′H-spiro[piperidine-4,2′-pyrrolo[2,1-b][1,3]oxazol]-3′-one]"
24,0.153 µM,"Cc1c(Br)ccnc1C(=O)N1CCC2(CC1)O[C@@H]1CC[C@@H](c3cc(F)cc(F)c3)N1C2=O [Example 6.80, (5′S,7a′R)-1-(4-bromo-3-methylpyridine-2-carbonyl)-5′-(3,5-difluorophenyl)tetra-hydro-3′H-spiro [piperidine-4,2′-pyrrolo[2,1-b][1,3]-oxazol]-3′-one]"
25,0.0307 µM,"N#Cc1cnc(N2CCC3(CC2)O[C@@H]2CC[C@@H](c4cccc(F)c4)N2C3=O)c(F)c1 [Example 4.50, 5-fluoro-6-[(5′S,7a′R)-5′-(3-fluorophenyl)-3′-oxotetrahydro-1H,3′H-spiro[piperidine-4,2′-pyrrolo[2,1-b] [1,3]oxazol]-1-yl]pyridine-3-carbonitrile]"
26,0.083 µM,"O=C1N2[C@@H](CC[C@H]2c2ccccc2)OC12CCN(c1cc(Cl)nc(C3CCCCC3)n1)CC2 [Example 4.34, (5′S,7a′R)-1-(6-chloro-2-cyclohexylpyrimidin-4-yl)-5′-phenyltetrahydro-3′H-spiro[piperidine-4,2′-pyrrolo[2,1-b] [1,3]oxazol]-3′-one]"
27,< 0.025 µM,"O=C1N2[C@@H](CC[C@H]2c2ccccc2)OC12CCN(c1ccc(-c3cc4n(n3)CCC4)c3ncnn13)CC2 [Example 21.18, (5′S,7a′R)-1-[8-(5,6-dihydro-4H-pyrrolo[1,2-b]pyrazol-2-yl)[1,2,4]triazolo[1,5-a]pyridin-5-yl]-5′-phenyltetrahydro-3′H-spiro[piperidine-4,2′-pyrrolo[2,1-b][l,3]oxazol]-3′-one]"
